The IC50 is the concentration at which inhibition is half-maximal. A low value points to higher potency.

These results are taken from BindingDB's records for doi:10.1021/jm8013458 (University of Copenhagen, 2009).

Assay [1] addresses T1, Excitatory amino acid transporter 3 (Homo sapiens, UniProt P43005).
T1 sequence (P43005 whole entry): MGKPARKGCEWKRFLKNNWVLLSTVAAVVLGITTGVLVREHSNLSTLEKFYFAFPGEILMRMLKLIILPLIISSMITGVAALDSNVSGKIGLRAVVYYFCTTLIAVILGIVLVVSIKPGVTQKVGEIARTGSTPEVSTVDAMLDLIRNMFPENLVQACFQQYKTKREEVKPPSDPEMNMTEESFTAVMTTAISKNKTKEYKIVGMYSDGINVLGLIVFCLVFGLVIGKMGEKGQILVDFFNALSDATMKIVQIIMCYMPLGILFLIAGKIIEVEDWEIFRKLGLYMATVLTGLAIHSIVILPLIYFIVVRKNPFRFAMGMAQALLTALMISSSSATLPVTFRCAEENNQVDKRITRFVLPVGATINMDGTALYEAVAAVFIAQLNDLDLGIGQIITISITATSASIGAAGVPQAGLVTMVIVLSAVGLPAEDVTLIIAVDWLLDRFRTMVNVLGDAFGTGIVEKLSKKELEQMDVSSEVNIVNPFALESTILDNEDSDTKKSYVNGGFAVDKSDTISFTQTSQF
Kind of assay: Displacement of [3H]D-Asp from human EAAT3 receptor expressed in HEK293 cells.

For assay [2], the target named is Excitatory amino acid transporter 2 (Homo sapiens, UniProt P43004). Kind of assay: Displacement of [3H]D-Asp from human EAAT2 receptor expressed in HEK293 cells. A general note: Displacement assays read how much labelled ligand stays bound in the presence of the test substance.
Assay [3] has as its target Excitatory amino acid transporter 1 (Homo sapiens, UniProt P43003). The assay can be described thus: Displacement of [3H]D-Asp from human EAAT1 receptor expressed in HEK293 cells.

Structures are written as SMILES.

Sequence of Excitatory amino acid transporter 2 (P43004 whole entry): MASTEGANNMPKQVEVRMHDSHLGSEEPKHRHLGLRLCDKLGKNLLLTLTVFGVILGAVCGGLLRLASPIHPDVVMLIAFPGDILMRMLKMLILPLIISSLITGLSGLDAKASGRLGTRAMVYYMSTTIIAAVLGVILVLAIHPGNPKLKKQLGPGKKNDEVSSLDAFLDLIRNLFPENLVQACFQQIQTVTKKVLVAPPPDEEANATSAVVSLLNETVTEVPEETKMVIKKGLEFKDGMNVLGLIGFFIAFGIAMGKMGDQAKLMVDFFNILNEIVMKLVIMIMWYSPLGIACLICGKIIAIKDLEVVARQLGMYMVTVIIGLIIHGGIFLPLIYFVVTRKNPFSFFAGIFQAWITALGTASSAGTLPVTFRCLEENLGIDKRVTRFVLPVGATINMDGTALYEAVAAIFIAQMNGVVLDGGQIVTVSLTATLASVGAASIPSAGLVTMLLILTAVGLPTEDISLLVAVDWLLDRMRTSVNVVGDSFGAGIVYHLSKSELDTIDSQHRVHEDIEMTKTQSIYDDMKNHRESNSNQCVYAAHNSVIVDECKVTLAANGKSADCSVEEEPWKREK
Sequence of Excitatory amino acid transporter 1 (P43003 whole entry): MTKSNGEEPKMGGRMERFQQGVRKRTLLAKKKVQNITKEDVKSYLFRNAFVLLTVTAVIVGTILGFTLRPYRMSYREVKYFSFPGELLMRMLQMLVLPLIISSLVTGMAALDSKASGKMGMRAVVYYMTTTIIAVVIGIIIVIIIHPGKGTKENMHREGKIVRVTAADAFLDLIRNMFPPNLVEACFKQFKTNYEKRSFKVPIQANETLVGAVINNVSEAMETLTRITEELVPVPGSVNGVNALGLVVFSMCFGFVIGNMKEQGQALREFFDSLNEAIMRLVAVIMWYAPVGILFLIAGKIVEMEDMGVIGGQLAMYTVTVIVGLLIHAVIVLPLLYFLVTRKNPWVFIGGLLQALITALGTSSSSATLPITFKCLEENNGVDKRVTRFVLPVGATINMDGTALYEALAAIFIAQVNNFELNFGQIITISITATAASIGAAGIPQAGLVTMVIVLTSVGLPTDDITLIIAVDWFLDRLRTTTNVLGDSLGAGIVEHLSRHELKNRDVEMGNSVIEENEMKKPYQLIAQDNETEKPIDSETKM

On to `N#CC1C(=N)OC2=C(C(=O)CC(c3ccccc3)C2)C1c1ccc2c(c1)OCO2` (centres undefined), for which the IC50 in assay [1] and in assay [2] was more than 300 µM in each case.

On to `COc1ccc(C2C3=C(CC(c4ccc(OC)c(OC)c4)CC3=O)OC(=N)C2C#N)cc1` (centres undefined) [2-Amino-4-(4-methoxyphenyl)-7-(3,4-dimethoxyphenyl)-5-oxo-5,6,7,8-tetrahydro-4H-chromene-3-carbonitrile], for which the IC50 in assay [1] and in assay [2] was more than 300 µM throughout.

For `COc1ccc(C2C3=C(CC(c4cccc5ccccc45)CC3=O)OC(=N)C2C#N)cc1` (centres undefined) [2-Amino-4-(4-methoxyphenyl)-7-(naphthalene-1-yl)-5-oxo-5,6,7,8-tetrahydro-4H-chromene-3-carbonitrile], the IC50 is more than 300 µM in assay [1], more than 300 µM in assay [2] and 0.66 µM in assay [3].

`N#CC1CC2=C(CC(c3ccccc3)CC2=O)OC1=N` (centres undefined) [2-Amino-5-oxo-7-phenyl-5,6,7,8-tetrahydro-4H-chromene-3-carbonitrile]: the 50% inhibitory concentration (IC50) in assay [1], in assay [2] and in assay [3] was more than 300 µM each time.

In the case of `COc1cccc(C2C3=C(CC(c4ccccc4)CC3=O)OC(=N)C2C#N)c1OC` (centres undefined) [2-amino-4-(2,3-dimethoxyphenyl)-5-oxo-7-phenyl-5,6,7,8-tetrahydro-4H-chromene-3-carbonitrile], the half-inhibitory concentration (IC50) in assay [3] was 50.1 µM.

On to `N#CC1C(=N)OC2=C(C(=O)CCC2)C1c1ccccc1F` (centres undefined) [2-amino-4-(2-fluorophenyl)-5-oxo-5,6,7,8-tetrahydro-4H-chromene-3-carbonitrile], for which the IC50 in assay [1], in assay [2] and in assay [3] was more than 300 µM each time.

Take `CSc1ccc(C2C3=C(CC(c4ccccc4)CC3=O)OC(=N)C2C#N)cc1` (centres undefined) [2-amino-4-(4-(methylthio)phenyl)-5-oxo-7-phenyl-5,6,7,8-tetrahydro-4H-chromene-3-carbonitrile]: the IC50 in assay [1] and in assay [2] was more than 100 µM in each case.

On to `N#CC1C(=N)OC2=C(C(=O)CC(c3cccs3)C2)C1c1ccc([N+](=O)[O-])cc1` (centres undefined) [2-amino-4-(4-nitrophenyl)-5-oxo-7-(thiophen-2-yl)-5,6,7,8-tetrahydro-4H-chromene-3-carbonitrile], for which the 50% inhibitory concentration (IC50) in assay [1] and in assay [2] was more than 300 µM each time.

With `N#CC1C(=N)OC2=C(C(=O)CC(c3ccccc3)C2)C1c1ccc([N+](=O)[O-])cc1` (centres undefined) [2-amino-4-(4-nitrophenyl)-5-oxo-7-phenyl-5,6,7,8-tetrahydro-4H-chromene-3-carbonitrile], the IC50 was more than 100 µM in assay [1], more than 100 µM in assay [2] and 3.6 µM in assay [3].

As to `CC1CC(=O)C2=C(C1)OC(=N)C(C#N)C2c1ccc2c(c1)OCO2` (centres undefined) [2-amino-4-(benzo[d][1,3]dioxol-5-yl)-7-methyl-5-oxo-5,6,7,8-tetrahydro-4H-chromene-3-carbonitrile], the concentration for half-maximal inhibition (IC50) in assay [1], in assay [2] and in assay [3] was more than 300 µM in each case.

For the compound `N#CC1C(=N)OC2=C(C(=O)CC(c3ccccc3)C2)C1c1ccc(-c2ccccc2)cc1` (centres undefined) [2-amino-4-(biphenyl-4-yl)-5-oxo-7-phenyl-5,6,7,8-tetrahydro-4H-chromene-3-carbonitrile], the IC50 in assay [1] and in assay [2] was more than 100 µM throughout.

For `N#CC1C(=N)OC2=C(C(=O)CC(c3ccccc3)C2)C1c1ccc2ccccc2c1` (centres undefined) [2-amino-4-(naphthalen-2-yl)-5-oxo-7-phenyl-5,6,7,8-tetrahydro-4H-chromene-3-carbonitrile], the concentration for half-maximal inhibition (IC50) was more than 100 µM in assay [1], more than 100 µM in assay [2] and 3.6 µM in assay [3].

With `N#CC1C(=N)OC2=C(C(=O)CC(c3ccccc3)C2)C1Cc1ccccc1` (centres undefined) [2-amino-4-benzyl-5-oxo-7-phenyl-5,6,7,8-tetrahydro-4H-chromene-3-carbonitrile], the figures for the IC50 in assay [1], in assay [2] and in assay [3] were more than 100 µM, more than 100 µM and 30 µM, respectively.

With `CC1C2=C(CC(c3ccccc3)CC2=O)OC(=N)C1C#N` (centres undefined) [2-amino-4-methyl-5-oxo-7-phenyl-5,6,7,8-tetrahydro-4H-chromene-3-carbonitrile], the IC50 was more than 300 µM in assay [1] and more than 316 µM in assay [2].

Take `N#CC1C(=N)OC2=C(C(=O)CC(c3ccccc3)C2)C1c1cccnc1` (centres undefined) [2-amino-5-oxo-7-phenyl-4-(pyridin-3-yl)-5,6,7,8-tetrahydro-4H-chromene-3-carbonitrile]: the half-inhibitory concentration (IC50) was more than 300 µM in assay [1], more than 300 µM in assay [2] and 30 µM in assay [3].

For `COc1ccc(C2C3=C(CC(c4ccccc4Cl)CC3=O)OC(=N)C2C#N)cc1` (centres undefined) [2-amino-7-(2-chlorophenyl)-4-(4-methoxyphenyl)-5-oxo-5,6,7,8-tetrahydro-4H-chromene-3-carbonitrile], the IC50 in assay [1] and in assay [2] was more than 300 µM each time.

Regarding `N#CC1C(=N)OC2=C(C(=O)CC(c3ccco3)C2)C1c1ccccc1` (centres undefined) [2-amino-7-(furan-2-yl)-5-oxo-4-phenyl-5,6,7,8-tetrahydro-4H-chromene-3-carbonitrile], the IC50 in assay [1] and in assay [2] was more than 300 µM throughout.

With `COc1ccc(C2C3=C(CC(c4ccco4)CC3=O)OC(=N)C2C#N)cc1OC(=O)N1CCOCC1` (centres undefined) [5-(2-amino-3-cyano-7-(furan-2-yl)-5-oxo-5,6,7,8-tetrahydro-4H-chromen-4-yl)-2-methoxyphenyl morpholine-4-carboxylate], the IC50 in assay [1] was more than 300 µM; in assay [2], more than 300 µM; in assay [3], 100 µM.
